According to patent US20220127281A1, “HETEROARYL COMPOUNDS THAT INHIBIT G12C MUTANT RAS PROTEINS” (AstraZeneca AB, priority 2017, published 2022):

Assays:
[1] = molecular target: T1, GDP loaded biotinylated KRas^G12C protein (Homo sapiens, UniProt P01116, G12C); test: KRasG12C functional assay; type: biochemical; details: HTRF FRET readout of SOS-mediated nucleotide exchange and GST-Raf RBD binding; samples incubated for 4 hrs; read-out: KRasG12C functional assay IC50 value
T1 construct: biotin (biotinylated); made in house
T1 sequence (P01116 1-188 isoform P01116-2 G12C): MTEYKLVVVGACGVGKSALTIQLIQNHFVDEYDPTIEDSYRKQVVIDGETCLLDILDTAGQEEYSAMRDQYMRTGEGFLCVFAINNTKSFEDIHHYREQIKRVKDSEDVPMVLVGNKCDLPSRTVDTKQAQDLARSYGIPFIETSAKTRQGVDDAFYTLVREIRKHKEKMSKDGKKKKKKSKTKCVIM
Experimental: KRasG12C Functional Assay
All enzyme and substrate solutions were prepared in assay buffer containing 20 mM HEPES (pH 7.5), 5 mM MgCl2, 150 mM NaCl, and 0.01% Tween 20. […] In a separate mix 20 nM GST-Raf Ras binding domain (GST-Raf RBD, purified in house) and 4 μg/ml anti-GST XL665 antibody (Cisbio) was prepared in assay buffer containing 50 mM Potassium Fluoride and 0.05 mg/ml BSA and equilibrated for 4 hours before adding 0.6 μM Guanosine 5′-[γ-thio]triphosphate (GTPγS, Sigma) and 0.08 μM SOS (purified in house). 5 μl of the GST-RAF RBD mix was then dispensed into each well of the assay plate. […] This is detected simultaneously via the specific binding interaction between active GTPγS KRas^G12C with GST-Raf RBD which brings the europium and XL665 into close proximity enabling an increased FRET signal to be detected on a Pherastar (BMG) plate reader equipped with the HTRF filter module. […] IC50 values were calculated from normalised dose-response response FRET data curve fitted in Genedata screener (Basel, Switzerland).

[2] = molecular target: T1, GDP loaded biotinylated KRas^G12C protein; test: KRasG12C mass spectrometry adducting assay; type: binding; details: test compound final concentration 10 μM, 4 μM KRasG12C, react for 4 hours
Experimental: KRasG12C Mass Spectrometry Adducting Assay
Enzyme solutions were prepared in assay buffer containing 20 mM HEPES (pH 7.5), 5 mM MgCl2, and 150 mM NaCl. […] The plate was sealed before reading on a Xevo G2 QTOF (Waters) and Acquity LC system (Waters). […] Blank samples were run in between each test sample.
Data was analysed in Mass Lynx software (Waters), the Total ion count (TIC) trace was used and the eluted protein peak data combined. Using the combined spectrum the data was deconvoluted using MaxEnt1 method. The peak area for apo-protein KRas^G12C (APO) and KRAS+relative cmpd mass (adduct) were measured, and a percentage adduct was calculated using the following calculation:
Percent adduct=100*(area of adduct peak/(sum of APO+adduct peaks)

Row | SMILES | IC50 [1] | KRasG12C M.S. Binding Mean adduct % [2]
1 | C=CC(=O)N1CCN2c3ncnc4cc(-c5ccccc5OC(F)(F)F)c(Cl)c(c34)OC[C@@H]2C1 [Example 35, 1-[(8aS)-6-Chloro-5-[2-(trifluoromethoxy)phenyl]-8a,9,11,12-tetrahydropyrazino[2′,1′:3,4][1,4]oxazepino[5,6,7-de]quinazolin-10(8H)-yl]prop-2-en-1-one] | 1.48 µM | 87%
2 | C=CC(=O)N1CCN2c3ncnc4cc(-c5cc(F)ccc5F)c(Cl)c(c34)OC[C@@H]2C1 [Example 40, 1-[(8aS)-6-Chloro-5-(2,5-difluorophenyl)-8a,9,11,12-tetrahydropyrazino[2′,1′:3,4][1,4]oxazepino[5,6,7-de]quinazolin-10(8H)-yl]prop-2-en-1-one] | 0.955 µM | 67%
3 | C=CC(=O)N1CCN2c3ncnc4cc(-c5cccc(N=S(C)(C)=O)c5)c(Cl)c(c34)OC[C@@H]2C1 [Example 36, 1-[(8aS)-6-Chloro-5-(3-{[dimethyl(oxido)-lambda~6~- sulfanylidene]amino}phenyl)-8a,9,11,12-tetrahydropyrazino[2′,1′:3,4][1,4]oxazepino[5,6,7-de]quinazolin-10(8H)-yl]prop-2-en-1-one] | 6.38 µM | 21%
4 | C=CC(=O)N1CCN2c3ncnc4cc(-c5ccc(O)cc5)c(Cl)c(c34)OC[C@@H]2C1 [Example 52, 1-[(8aS)-6-Chloro-5-(4-hydroxyphenyl)-8a,9,11,12-tetrahydropyrazino[2′,1′:3,4][1,4]oxazepino[5,6,7-de]quinazolin-10(8H)-yl]prop-2-en-1-one] | 5.36 µM | 17%
5 | C=CC(=O)N1CCN2c3ncnc4cc(-c5cccc(S(N)(=O)=O)c5)c(Cl)c(c34)OC[C@@H]2C1 [Example 31, 3-[(8aS)-10-Acryloyl-6-chloro-8,8a,9,10,11,12-hexahydropyrazino[2′,1′:3,4][1,4]oxazepino[5,6,7-de]quinazolin-5-yl]benzenesulfonamide] | 6.97 µM | 14%
6 | C=CC(=O)N1CCN2c3ncnc4cc(-c5ccccc5Cl)c(Cl)c(c34)OC[C@@H]2C1 [Example 42, 1-[(8aS)-6-Chloro-5-(2-chlorophenyl)-8a,9,11,12-tetrahydropyrazino[2′,1′:3,4][1,4]oxazepino[5,6,7-de]quinazolin-10(8H)-yl]prop-2-en-1-one] | 0.247 µM | 100%
7 | C=CC(=O)N1CCN2c3ncnc4cc(-c5ccccc5S(C)(=O)=O)c(Cl)c(c34)OC[C@@H]2C1 [Example 29, 1-[(8aS)-6-Chloro-5-[2-(methylsulfonyl)phenyl]-8a,9,11,12-tetrahydropyrazino[2′,1′:3,4][1,4]oxazepino[5,6,7-de]quinazolin-10(8H)-yl]prop-2-en-1-one] | 5.02 µM | 45%
8 | C=CC(=O)N1CCN2c3ncnc4cc(-c5ccc(F)cc5Cl)c(Cl)c(c34)OC[C@@H]2C1 [Example 50, 1-[(8aS)-6-Chloro-5-(2-chloro-4-fluorophenyl)-8a,9,11,12-tetrahydropyrazino[2′,1′:3,4][1,4]oxazepino[5,6,7-de]quinazolin-10(8H)-yl]prop-2-en-1-one] | 0.956 µM | 100%

The remaining lines, values ahead:

Row | IC50 [1] | KRasG12C M.S. Binding Mean adduct % [2] | SMILES
9 | 22.4 µM | 0% | C=CC(=O)N1CCN2c3nc(N4CC(N(C)C)C4)nc4cc(-c5c(C)ccc6[nH]ncc56)c(Cl)c(c34)OC[C@@H]2C1 (single isomer, unassigned) [Example 76]
10 | 9.93 µM | 26% | C=CC(=O)N1CCN2c3ncnc4cc(-c5cccc6c5CCCOC6)c(Cl)c(c34)OC[C@@H]2C1 [Example 28, 1-[(8aS)-6-Chloro-5-(1,3,4,5-tetrahydro-2-benzoxepin-6-yl)-8a,9,11,12-tetrahydropyrazino[2′,1′:3,4][1,4]oxazepino[5,6,7-de]quinazolin-10(8H)-yl]prop-2-en-1-one]
11 | 0.037 µM | 81% | C=CC(=O)N1CCN2c3nc(NCCN(C)C)nc4cc(-c5c(C)ccc6[nH]ncc56)c(Cl)c(c34)OC[C@@H]2C1 [Example 78, 1-((8aS)-6-Chloro-2-((2-(dimethylamino)ethyl)amino)-5-(5-methyl-1H-indazol-4-yl)-8a,9,11,12-tetrahydropyrazino[2′,1′:3,4][1,4]oxazepino[5,6,7-de]quinazolin-10 (8H)-yl)prop-2-en-1-one]
12 | 2.06 µM | 71% | C=CC(=O)N1CCN2c3ncnc4cc(-c5cccc(F)c5OC)c(Cl)c(c34)OC[C@@H]2C1 [Example 26, 1-[(8aS)-6-Chloro-5-(3-fluoro-2-methoxyphenyl)-8a,9,11,12-tetrahydropyrazino[2′,1′:3,4][1,4]oxazepino[5,6,7-de]quinazolin-10(8H)-yl]prop-2-en-1-one]
13 | 7.18 µM | 20% | C=CC(=O)N1CCN2c3ncnc4cc(-c5ccc6oc(N)nc6c5)c(Cl)c(c34)OC[C@@H]2C1 [Example 21, 1-[(8aS)-5-(2-Amino-1,3-benzoxazol-5-yl)-6-chloro-8a,9,11,12-tetrahydropyrazino[2′,1′:3,4][1,4]-oxazepino[5,6,7-de]quinazolin-10(8H)-yl]prop-2-en-1-one]
14 | 5.09 µM | 57% | C=CC(=O)N1CCN2c3ncnc4cc(-c5cc(F)ccc5OC)c(Cl)c(c34)OC[C@@H]2C1 [Example 51, 1-[(8aS)-6-Chloro-5-(5-fluoro-2-methoxyphenyl)-8a,9,11,12-tetrahydropyrazino[2′,1′:3,4][1,4]oxazepino[5,6,7-de]quinazolin-10(8H)-yl]prop-2-en-1-one]
15 | 4.41 µM | 27% | C=CC(=O)N1CCN2c3ncnc4cc(-c5cccc6c5OCCOC6)c(Cl)c(c34)OC[C@@H]2C1 [Example 24, 1-[(8aS)-6-Chloro-5-(2,3-dihydro-5H-1,4-benzodioxepin-9-yl)-8a,9,11,12-tetrahydropyrazino[2′,1′:3,4][1,4]oxazepino[5,6,7-de]quinazolin-10(8H)-yl]prop-2-en-1-one]
16 | 0.445 µM | 67% | C=CC(=O)N1CCN2c3nc(N4CCOCC4)nc4cc(-c5c(C)ccc6[nH]ncc56)c(Cl)c(c34)OC[C@@H]2C1 [Example 70, 1-[(8aS)-6-chloro-5-(5-methyl-1H-indazol-4-yl)-2-(morpholin-4-yl)-8a,9,11,12-tetrahydropyrazino[2′,1′:3,4][1,4]oxazepino[5,6,7-de]quinazolin-10 (8H)-yl]prop-2-en-1-one]
17 | > 100 µM | 0% | C=CC(=O)N1CCN2c3ncnc4cc(-c5c(O)cccc5OC)c(Cl)c(c34)OC[C@@H]2C1 (single isomer, unassigned) [Example 17]
18 | 22.7 µM | 12% | C=CC(=O)N1CCN2c3ncnc4cc(-c5c(O)cccc5Cl)c(Cl)c(c34)OC[C@@H]2C1 (single isomer, unassigned) [Example 15]
19 | 0.191 µM | 100% | C=CC(=O)N1CCN2c3ncnc4cc(-c5c(O)cccc5C#N)c(Cl)c(c34)OC[C@@H]2C1 (single isomer, unassigned) [Example 20]
